Test results as given in US8288139B2, “Sulfotransferase inhibitors” (Seikagaku Corporation, priority 2002, dated 2012).

Biological target: T1, human-derived GalNAc4S6ST (Homo sapiens, UniProt Q7LFX5)
T1 construct: made in house
T1 sequence (Q7LFX5 1-561): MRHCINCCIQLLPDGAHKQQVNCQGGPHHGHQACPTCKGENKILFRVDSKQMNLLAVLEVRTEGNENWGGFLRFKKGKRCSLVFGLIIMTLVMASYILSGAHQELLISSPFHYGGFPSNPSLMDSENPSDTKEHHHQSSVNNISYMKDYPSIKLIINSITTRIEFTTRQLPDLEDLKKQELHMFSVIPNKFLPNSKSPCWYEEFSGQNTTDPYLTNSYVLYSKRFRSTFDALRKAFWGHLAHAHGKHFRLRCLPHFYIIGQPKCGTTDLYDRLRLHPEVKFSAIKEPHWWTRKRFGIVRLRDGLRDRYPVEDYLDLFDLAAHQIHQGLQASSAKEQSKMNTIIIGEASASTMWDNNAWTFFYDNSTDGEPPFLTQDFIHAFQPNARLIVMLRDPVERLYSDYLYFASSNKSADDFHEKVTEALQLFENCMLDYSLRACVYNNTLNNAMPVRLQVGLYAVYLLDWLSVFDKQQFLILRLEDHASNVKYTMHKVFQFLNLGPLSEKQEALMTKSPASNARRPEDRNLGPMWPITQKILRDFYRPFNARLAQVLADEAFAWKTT
Assay: Inhibition of GalNAc4S6ST enzyme activity ([35S]PAPS sulfate transfer to chondroitin sulfate A)
Assay type: biochemical
Settings: for inhibitory activity upon GalNAc4S6ST (relative value of the enzyme reaction, system without substance = 100%): substance added at 50 nmol, 125 nmol or 250 nmol to 50 μl reaction, 37° C., 20 minutes, values only in FIG. 1-3; for strength of inhibitory activity upon GalNAc4S6ST, α type and β type of the same formula compared: Substance 1 vs 2, 3 vs 4, 5 vs 6, 50, 125 or 250 nmol in 50 μl reaction
Protocol: The enzyme activity was measured by modifying the method described in J. Biol. Chem., 276, 43894-43900 (2001). As the standard reaction solution, 2.5 μmol of imidazole-HCl (pH 6.8), 0.5 μmol of CaCl2, 1 μmol of reduced type glutathione, 25 nmol in galactosamine equivalent of chondroitin sulfate A (derived from whale cartilage, manufactured by Seikagaku Corporation), 50 pmol of [^35S]PAPS (active sulfate: about 5.0×10^5 cpm: prepared according to Anal Biochem., 148, 303-310 (1985)), and human-derived GalNAc4S6ST prepared according to the method described in J. Biol. Chem., 276, 43894-43900 (2001) were added to 50 μl. The reaction was started by adding each of Substance 1 of the present invention, Substance 2 of the present invention, Substance 3 of the present invention, Substance 4 of the present invention, Substance 5 of the present invention and Substance 6 of the present invention to this reaction system to give a final concentration of 50 nmol, 125 nmol or 250 nmol.
The reaction was carried out by incubating the reaction solution at 37° C. for 20 minutes, and the reaction was terminated by heating the reaction tubes in boiling water for 1 minute. After termination of the reaction, 3 volumes of ethanol containing 1.3% potassium acetate was added thereto to thereby precipitate the ^35S-labeled glycosaminoglycan, followed by gel chromatography using a high performance desalting column according to the method described in J. Biol. Chem., 268, 21968-21974 (1993), and then the radioactivity was measured by using a scintillation counter. A reaction system to which the enzyme was not added was used as the negative control.
By using the enzyme activity of a system to which the substance of the present invention was not added as the positive control and regarding it as 100%, relative values of the enzyme reaction in a system to which the substance of the present invention was added were calculated (Substance 1 of the present invention and Substance 2 of the present invention: FIG. 1, Substance 3 of the present invention and Substance 4 of the present invention: FIG. 2, Substance 5 of the present invention and Substance 6 of the present invention: FIG. 3).

Row | SMILES | inhibitory activity upon GalNAc4S6ST (relative value of the enzyme reaction, system without substance = 100%) | strength of inhibitory activity upon GalNAc4S6ST, α type and β type of the same formula compared
1 | CC(=O)NC1[C@@H](Oc2ccccc2)OC(COS(=O)(=O)O)[C@H](O)[C@@H]1O (stereo partly shown) [Substance 1] | inhibitory activity was observed | –
2 | CC(=O)NC1[C@H](Oc2ccccc2)OC(COS(=O)(=O)O)[C@H](O)[C@@H]1O (stereo partly shown) [Substance 2] | inhibitory activity was observed | particularly strong
3 | CC(=O)NC1[C@H](Oc2ccccc2)OC(CO)[C@H](OS(=O)(=O)O)[C@@H]1O (stereo partly shown) [Substance 6] | – | stronger inhibitory activity
